Source: patent publication EP0681475B1 (priority 1993, dated 1994)
Read-outs that look alike come from different tables or passages of the source.

Legend:
[1] = system: Vascular smooth muscle (BO54) cells; assay type: cell-based, baboon
[2] = system: Vascular smooth muscle (BO54) cells; assay type: cell-based, baboon; remark: listed apart in the source
[3] = system: vascular smooth muscle cells; assay type: in vivo, pig
[4] = system: Vascular smooth muscle cells; assay: In vitro recovery of migration after clearance of the agent; assay type: cell-based; settings: cells regenerate enough polymerized actin
pig femoral arteries = settings: in vivo
[5] = system: Vascular smooth muscle cells (BO54); assay: Scratch-migration assay; assay type: cell-based, baboon; settings: 0.1 µg/ml
Description: Scratch assays to determine the extent of smooth muscle cell migration inhibition by cytochalasin B were performed in accordance with the following protocol: Vascular smooth muscle cells (BO54) were derived from explants of baboon aortic smooth muscle, as described in Example 2. The cells were grown in flat bottom, six well tissue culture plates, which hold about 5 ml of medium. The vascular smooth muscle cells were plated at 200,000 cells/well and placed at 37°C in a humidified 5% CO2 incubator for 18 hours. The wells were then scratched with a sterile portion of a single edge razor blade that was held by clamp or pliers and was brought aseptically into contact with the bottom of the well at a 90° angle.The cells from a small area along the scratch were removed by a sterile cotton tipped applicator while the blade was in contact with the bottom of the well.
After incubation, the presence of cells in the "scratched" area is indicative of cell migration across the scratch line.
Briefly, a stock solution of cytochalasin B (Sigma Chemical Co.) in dimethyl sulfoxide (DMSO) at 1 mg/ml was prepared. Test dilutions of cytochalasin B or control medium were added. […]
The migration results are expressed as "Grade in the Cleared Area of the Well / Grade in an Undisturbed Region of the Well." The toxicity values represent a grade for all cells in each well.

[6] = system: Vascular smooth muscle cells

Row | Compound | minimum effective dose (MED) [1] | minimum effective dose (MED) [2] | BRDU labeling grade ([3]; pig, in vivo) | time to resume migration after cells clear the agent [4] | effect on luminal area in dose response study (pig femoral arteries) | incidence of mural microthrombi (pig femoral arteries) | lumen area in the test region compared to the normal control segment of the same artery (pig femoral arteries) | luminal area compared to arteries treated with other test agents or controls (pig femoral arteries) | migration grade following removal of the therapeutic agent ([5]; even after 10 days of continuous exposure) | migration grade into the cleared area adjacent to the scratch ([5]; exposure) | Morphological cytotoxicity grade ([6]; 0.01ug, Continuous 24 hrs (first listing, 24 hr pulse series)) | Morphological cytotoxicity grade ([6]; 0.01ug, continuous 24 hrs (second listing, long term continuous series)) | Morphological cytotoxicity grade ([6]; 0.1 ug, Continuous 24 hrs (first listing, 24 hr pulse series)) | Morphological cytotoxicity grade ([6]; 0.1 ug, continuous 24 hrs (second listing, long term continuous series)) | cytotoxicity grade ([6]; 1 µg/ml, anti-migration/contraction effective dose, 1 = minimal) | Morphological cytotoxicity grade ([6]; 1 ug, Continuous 24 hrs (first listing, 24 hr pulse series)) | Morphological cytotoxicity grade ([6]; 1 ug, continuous 24 hrs (second listing, long term continuous series)) | BRDU labeling grade ([3]; 24 hours following balloon trauma, pretrauma baseline grade 1)
1 | CN[C@@H]1C[C@H]2O[C@@](C)([C@@H]1OC)n1c3ccccc3c3c4c(c5c6ccccc6n2c5c31)C(=O)NC4 [staurosporin] | 1 ng/mL | 1 ng/mL | 1 (key: 1 = ≤ 1/high power field(HPF); 2 = 2 to 5/HPF; 3 = > 5 to ≤ 10/HPF; 4 = > 10/HPF) |  |  |  |  |  |  |  |  |  |  |  |  |  |  | 
2 | cytochalasin B |  |  |  | ≤ 24 h | significant threshold effect | decreased | approximately two times as large | larger luminal area | +3 to +4 | +1 to +2 | 0 | 0 | 1 | 0 | 1 | 3 | 3 | 1 (1 = ≤ 1/high power field(HPF))
